Measured values reported in US7632918B2, “Semi-synthetic glycopeptides with antibiotic activity” (Novartis Vaccines and Diagnostics, Inc., priority 2005, dated 2009).
In brackets after ≈: the same amount, converted by molar mass.

Key:
Assay in all cases: MIC, broth microdilution in Meuller-Hinton broth (NCCLS)
568 E. faecium (GSE) = format: cell-based; conditions: glycopeptide-sensitive clinical isolate
Experimental: (§1) Antibacterial activity in vitro was investigated by broth microdilution method in Meuller-Hinton broth as recommended by NCCLS. All strains tested were clinical isolates either sensitive or resistant to natural glycopeptides. Results are reported in the tables as MIC (minimal inhibitory concentration) in μg/ml.
(§2) The glycopeptides were tested against a variety of strains, indicated below, including Staphylococus epidermidis, Staphylococus haemolyticus, glycopeptides-intermediate Staphylococus aureus (GISA), glocopeptide-sensitive Enterococcus faecalis (GSE), and glocopeptide-resistant Enterococcus faecalis (GRE). Results are shown in the table as minimum inhibitory concentration (MIC) in units of μg/ml: […]

569 E. faecium (GRE) = format: cell-based; conditions: glycopeptide-resistant clinical isolate
Experimental: as §1, §2

560 E. faecalis (GRE) = format: cell-based, Enterococcus faecalis; conditions: glycopeptide-resistant clinical isolate
Experimental: as §1, §2

559 E. faecalis (GSE) = format: cell-based, Enterococcus faecalis; conditions: glycopeptide-sensitive clinical isolate
Experimental: as §1, §2

533 S. epidermidis = format: cell-based, Staphylococus epidermidis; conditions: clinical isolate
Experimental: as §1, §2

602 S. haemolyticus = format: cell-based, Staphylococus haemolyticus; conditions: clinical isolate
Experimental: as §1, §2

3798 S. aureus (GISA) = format: cell-based, Staphylococus aureus; conditions: glycopeptides-intermediate clinical isolate
Experimental: as §1, §2

3797 S. aureus (GISA) = format: cell-based, Staphylococus aureus; conditions: glycopeptides-intermediate clinical isolate
Experimental: as §1, §2

SMILES	MIC 568 E. faecium (GSE) (568 E. faecium (GSE))	MIC 569 E. faecium (GRE) (569 E. faecium (GRE))	MIC 560 E. faecalis (GRE) (560 E. faecalis (GRE))	MIC 559 E. faecalis (GSE) (559 E. faecalis (GSE))	MIC 533 S. epidermidis (533 S. epidermidis)	MIC 602 S. haemolyticus (602 S. haemolyticus)	MIC 3798 S. aureus (GISA) (3798 S. aureus (GISA))	MIC 3797 S. aureus (GISA) (3797 S. aureus (GISA))
CNC(CC(C)C)C(=O)NC1C(=O)NC(CC(N)=O)C(=O)NC2C(=O)NC3C(=O)NC(C(=O)NC(C(=O)O)c4cc(O)cc(O)c4-c4cc3ccc4O)C(OC3CC(C)(N)C(O)C(C)O3)c3ccc(cc3)Oc3cc2cc(c3OC2OC(CO)C(O)C(O)C2OC2CC(C)(NC(=O)CNCc3ccc(-c4ccc(Cl)cc4)cc3)C(O)C(C)O2)Oc2ccc(cc2Cl)C1O (centres unmarked) [Compound 44]	1 µg/mL (≈ 0.551 µM)	8 µg/mL (≈ 4.41 µM)	8 µg/mL (≈ 4.41 µM)	1 µg/mL (≈ 0.551 µM)	0.5 µg/mL (≈ 0.275 µM)	2 µg/mL (≈ 1.1 µM)	4 µg/mL (≈ 2.2 µM)	4 µg/mL (≈ 2.2 µM)
CCCCc1ccc(CNCC(=O)NC2(C)CC(OC3C(Oc4c5cc6cc4Oc4ccc(cc4Cl)C(O)C(NC(=O)C(CC(C)C)NC)C(=O)NC(CC(N)=O)C(=O)NC6C(=O)NC4C(=O)NC(C(=O)NC(C(=O)O)c6cc(O)cc(O)c6-c6cc4ccc6O)C(OC4CC(C)(N)C(O)C(C)O4)c4ccc(cc4)O5)OC(CO)C(O)C3O)OC(C)C2O)cc1 (centres unmarked) [Compound 57, N′-p-BuBnHNCH2CO eremomycin]	0.5 µg/mL (≈ 0.284 µM)	4 µg/mL (≈ 2.27 µM)	4 µg/mL (≈ 2.27 µM)	0.5 µg/mL (≈ 0.284 µM)	0.5 µg/mL (≈ 0.284 µM)	2 µg/mL (≈ 1.14 µM)	4 µg/mL (≈ 2.27 µM)	4 µg/mL (≈ 2.27 µM)
CCCCc1ccc(CNCC(=O)NC2(C)CC(OC3C(Oc4c5cc6cc4Oc4ccc(cc4Cl)C(O)C(NC(=O)C(CC(C)C)NC)C(=O)NC(CC(N)=O)C(=O)NC6C(=O)NC4C(=O)NC(C(=O)NC(C(=O)NC)c6cc(O)cc(O)c6-c6cc4ccc6O)C(OC4CC(C)(N)C(O)C(C)O4)c4ccc(cc4)O5)OC(CO)C(O)C3O)OC(C)C2O)cc1 (centres unmarked) [Compound 77]	2 µg/mL (≈ 1.13 µM)	8 µg/mL (≈ 4.51 µM)	8 µg/mL (≈ 4.51 µM)	2 µg/mL (≈ 1.13 µM)	1 µg/mL (≈ 0.564 µM)	2 µg/mL (≈ 1.13 µM)	2 µg/mL (≈ 1.13 µM)	2 µg/mL (≈ 1.13 µM)
CCCCc1ccc(CNCC(=O)NC2(C)CC(OC3C(Oc4c5cc6cc4Oc4ccc(cc4Cl)C(O)C4NC(=O)C(NC(=O)C6NC(=O)C(CC(N)=O)NC(=O)C(NC(=O)C(CC(C)C)NC)C(O)c6ccc(c(Cl)c6)O5)c5ccc(O)c(c5)-c5c(O)cc(O)cc5C(C(=O)O)NC4=O)OC(CO)C(O)C3O)OC(C)C2O)cc1 (centres unmarked) [Compound 182]	0.5 µg/mL (≈ 0.303 µM)	32 µg/mL (≈ 19.4 µM)	32 µg/mL (≈ 19.4 µM)	1 µg/mL (≈ 0.605 µM)	0.25 µg/mL (≈ 0.151 µM)	0.5 µg/mL (≈ 0.303 µM)	2 µg/mL (≈ 1.21 µM)	2 µg/mL (≈ 1.21 µM)
CCCCCCCCCC(=O)NCC(=O)NC1(C)CC(OC2C(Oc3c4cc5cc3Oc3ccc(cc3Cl)C(O)C(NC(=O)C(CC(C)C)NC)C(=O)NC(CC(N)=O)C(=O)NC5C(=O)NC3C(=O)NC(C(=O)NC(C(=O)O)c5cc(O)cc(O)c5-c5cc3ccc5O)C(OC3CC(C)(N)C(O)C(C)O3)c3ccc(cc3)O4)OC(CO)C(O)C2O)OC(C)C1O (centres unmarked) [Compound 186]	1 µg/mL (≈ 0.565 µM)	>64 µg/mL	>64 µg/mL	2 µg/mL (≈ 1.13 µM)	2 µg/mL (≈ 1.13 µM)	2 µg/mL (≈ 1.13 µM)	16 µg/mL (≈ 9.04 µM)	16 µg/mL (≈ 9.04 µM)
CCCCN(CCCC)c1ccc(CNCC(=O)NC2(C)CC(OC3C(Oc4c5cc6cc4Oc4ccc(cc4Cl)C(O)C(NC(=O)C(CC(C)C)NC)C(=O)NC(CC(N)=O)C(=O)NC6C(=O)NC4C(=O)NC(C(=O)NC(C(=O)O)c6cc(O)cc(O)c6-c6cc4ccc6O)C(OC4CC(C)(N)C(O)C(C)O4)c4ccc(cc4)O5)OC(CO)C(O)C3O)OC(C)C2O)cc1 (centres unmarked) [Compound 187]	1 µg/mL (≈ 0.546 µM)	32 µg/mL (≈ 17.5 µM)	32 µg/mL (≈ 17.5 µM)	2 µg/mL (≈ 1.09 µM)	1 µg/mL (≈ 0.546 µM)	1 µg/mL (≈ 0.546 µM)	8 µg/mL (≈ 4.37 µM)	8 µg/mL (≈ 4.37 µM)
CCCCOc1ccc(CNCC(=O)NC2(C)CC(OC3C(Oc4c5cc6cc4Oc4ccc(cc4Cl)C(O)C(NC(=O)C(CC(C)C)NC)C(=O)NC(CC(N)=O)C(=O)NC6C(=O)NC4C(=O)NC(C(=O)NC(C(=O)O)c6cc(O)cc(O)c6-c6cc4ccc6O)C(OC4CC(C)(N)C(O)C(C)O4)c4ccc(cc4)O5)OC(CO)C(O)C3O)OC(C)C2O)cc1 (centres unmarked) [Compound 193]	1 µg/mL (≈ 0.563 µM)	64 µg/mL (≈ 36 µM)	64 µg/mL (≈ 36 µM)	2 µg/mL (≈ 1.13 µM)	0.5 µg/mL (≈ 0.281 µM)	1 µg/mL (≈ 0.563 µM)	4 µg/mL (≈ 2.25 µM)	4 µg/mL (≈ 2.25 µM)
